According to US7718715B2, “pH-modified latex comprising a synergistic combination of biocides” (S.C. Johnson & Son, Inc., priority 2004, dated 2010):

Assays:
Aspergillus niger #6275 = assay: Challenge Test (Antimicrobial Effectiveness Test), mold inoculum; format: cell-based; parameters: key to Challenge Test result: Mold A. niger: Fail: Recovery of surviving organisms at 14 days was a failing result for the challenge test; details: for Challenge Test result: Mold A. niger: stabilized acrylic latex A, DN 22%
Method: The following cultures were obtained from American Type Culture Collection (ATCC) at 10801 University Boulevard, Manassas, Va. 20110-2209: Escherichia coli #11229, Pseudomonas aeruginosa #15442, Candida albicans #10231, Aspergillus niger #6275. The mold inoculum was 0.10 ml of A. niger culture specimen in 25 grams of sample to give approximately 2×10^5 CFU/g. The culture specimen was obtained from 7-day-old A. niger culture grown on Sabouraud Dextrose Agar (Difco Laboratories, Detroit, Mich.) with 0.2% Triton X-100 in 0.85% saline. Each of the 25-g samples were inoculated or challenged with 0.10 ml of the bacterial inoculum, the yeast inoculum, and the mold inoculum respectively on day-0 and day-14. All samples were stored at ambient temperature. Each sample (10 microliter) was streaked on appropriate agar plates (bacteria on Tryptic Soy Agar (Difco Laboratories, Detroit, Mich.) plates with neutralizer and yeast/mold on Potato Dextrose Agar (Difco Laboratories, Detroit, Mich.) plates with neutralizer) on day-1, day-2, day-3, day-7, day-14, day-15, day-16, day-17, day-21, and day-28 to test for survivors. Streaked plates were incubated at appropriate temperature and time (48-hr at 35±2° C. for bacteria and 72-hr at 28±2° C. for yeast/mold). On day-14, each sample was re-inoculated with appropriate inoculum after streaking on agar plates. Plates were read after incubation time. Recovery of surviving organisms at 14 days was a failing result for the challenge test. Biocides were always added after the reaction has been completed and after the batch has been cooled to <50° C. The desired temperature was dependent on the specific biocide. Many biocides become deactivated if exposed to high temperatures for an extended time. Each biocide was diluted with about 5× its weight with DI water and slowly added to the batch with good agitation. The dilution is to prevent the biocide from shocking the latex. The batch was mixed for a minimum of 20 minutes after the biocide was added to ensure good incorporation. If any temporary destabilization to the latex had occurred, it had time to recover prior to filtration. The Challenge Test is a qualitative laboratory procedure used to differentiate poorly and marginally preserved products from well-preserved products. Products are intentionally inoculated with test organisms and then evaluated by use of streak plating technique to determine if microbial reduction has been attained.

[1] = tested on: Escherichia coli, Pseudomonas aeruginosa, Candida albicans, Aspergillus niger; assay: Challenge Test, all test organisms; format: cell-based; details: stabilized acrylic latex A
Method: The following cultures were obtained from American Type Culture Collection (ATCC) at 10801 University Boulevard, Manassas, Va. 20110-2209: Escherichia coli #11229, Pseudomonas aeruginosa #15442, Candida albicans #10231, Aspergillus niger #6275. The bacterial inoculum was 0.10 ml of a 1:1 mixture of the 24-hr±4 hr culture of E. coli and P. aeruginosa in 25 grams of sample to give approximately 4×10^6 CFU/g. Both E. coli culture and the P. aeruginosa culture were grown in Nutrient Broth (Difco Laboratories, Detroit, Mich.) at 35° C. The yeast inoculum was 0.10 ml of a 72-hr±4 hr culture of C. albicans in 25 grams of sample to give approximately 2×10^5 CFU/g. The C. albicans culture was grown in Potato Dextrose Broth (Difco Laboratories, Detroit, Mich.) at 28° C. The mold inoculum was 0.10 ml of A. niger culture specimen in 25 grams of sample to give approximately 2×10^5 CFU/g. The culture specimen was obtained from 7-day-old A. niger culture grown on Sabouraud Dextrose Agar (Difco Laboratories, Detroit, Mich.) with 0.2% Triton X-100 in 0.85% saline. Each of the 25-g samples were inoculated or challenged with 0.10 ml of the bacterial inoculum, the yeast inoculum, and the mold inoculum respectively on day-0 and day-14. All samples were stored at ambient temperature. […] Plates were read after incubation time. […]

SMILES | Challenge Test result: Mold A. niger (Aspergillus niger #6275; 0.10% Bronopol (30% active), 0.00% Bioban CS-1135, pH 6.64, Table 1) | Challenge Test result: Mold A. niger (Aspergillus niger #6275; 0.10% Bronopol (30% active), 0.00% Dowicil 75, pH 6.64, Table 3) | killing of the mold (A. niger) (Aspergillus niger #6275; 0.2% BRONOPOL, acrylic latex A) | Challenge Test result: Mold A. niger (Aspergillus niger #6275; 0.20% Bronopol (30% active), 0.00% Bioban CS-1135, pH 6.65, Table 1) | Challenge Test result: Mold A. niger (Aspergillus niger #6275; 0.20% Bronopol (30% active), 0.00% Dowicil 75, pH 6.65, Table 3) | Challenge Test result: Mold A. niger (Aspergillus niger #6275; 0.50% Bronopol (30% active), 0.00% Bioban CS-1135, pH 6.58, Table 1) | Challenge Test result: Mold A. niger (Aspergillus niger #6275; 0.50% Bronopol (30% active), 0.00% Dowicil 75, pH 6.58, Table 3) | Challenge Test result: Mold A. niger (Aspergillus niger #6275; 0.80% Bronopol (30% active), 0.00% Bioban CS-1135, pH 6.57, Table 1) | Challenge Test result: Mold A. niger (Aspergillus niger #6275; 0.80% Bronopol (30% active), 0.00% Dowicil 75, pH 6.57, Table 3) | Challenge Test result: Mold A. niger (Aspergillus niger #6275; 1.20% Bronopol (30% active), 0.00% Bioban CS-1135, pH 6.57, Table 1) | Challenge Test result: Mold A. niger (Aspergillus niger #6275; 1.20% Bronopol (30% active), 0.00% Dowicil 75, pH 6.57, Table 3) | control of the growth of Aspergillus niger (Aspergillus niger #6275; maximum allowable level, test stabilized acrylic latex) | concentration required to kill all organisms [1] [%] | Challenge Test result: Mold A. niger (Aspergillus niger #6275; 0.10% Bioban CS-1135, 0.00% Bronopol, pH 6.68) | Challenge Test result: Mold A. niger (Aspergillus niger #6275; 0.20% Bioban CS-1135, 0.00% Bronopol, pH 6.69) | Challenge Test result: Mold A. niger (Aspergillus niger #6275; 0.80% Bioban CS-1135, 0.00% Bronopol, pH 6.62) | Challenge Test result: Mold A. niger (Aspergillus niger #6275; 1.20% Bioban CS-1135, 0.00% Bronopol, pH 6.64) | Challenge Test result: Mold A. niger (Aspergillus niger #6275; 2.00% Bioban CS-1135, 0.00% Bronopol, pH 6.82)
O=[N+]([O-])C(Br)(CO)CO [Bronopol, 2-bromo-2-nitro-1,3-propanediol] | Fail | Fail | failed to kill | Fail | Fail | Pass | Pass | Pass | Pass | Pass | Pass | failed to control | 0.5 | – | – | – | – | –
CC1(C)COCN1 [Bioban CS-1135, 4,4-dimethyl-oxazolidine] | – | – | – | – | – | – | – | – | – | – | – | – | 2.0 | Fail | Pass | Pass | Pass | Pass
